In patent publication US9585933B2, “Therapeutic use of peptide inhibitors of NADPH oxidase; aerosolization as a delivery mechanism” (University of Pittsburgh—Of the Commonwealth System of …, priority 2011, dated 2017):
Where no end group is shown, it is not given here.

Biological target: T1, Nox4 oxidase (COS-Nox4 lysate: hNox4, p22phox) (Homo sapiens, UniProt Q9NPH5)
T1 construct: expressed in transfected cells; host or cells: COS-22 cells (COS 7 with p22phox), stably transfected; cell lysate used
T1 sequence (Q9NPH5 1-578): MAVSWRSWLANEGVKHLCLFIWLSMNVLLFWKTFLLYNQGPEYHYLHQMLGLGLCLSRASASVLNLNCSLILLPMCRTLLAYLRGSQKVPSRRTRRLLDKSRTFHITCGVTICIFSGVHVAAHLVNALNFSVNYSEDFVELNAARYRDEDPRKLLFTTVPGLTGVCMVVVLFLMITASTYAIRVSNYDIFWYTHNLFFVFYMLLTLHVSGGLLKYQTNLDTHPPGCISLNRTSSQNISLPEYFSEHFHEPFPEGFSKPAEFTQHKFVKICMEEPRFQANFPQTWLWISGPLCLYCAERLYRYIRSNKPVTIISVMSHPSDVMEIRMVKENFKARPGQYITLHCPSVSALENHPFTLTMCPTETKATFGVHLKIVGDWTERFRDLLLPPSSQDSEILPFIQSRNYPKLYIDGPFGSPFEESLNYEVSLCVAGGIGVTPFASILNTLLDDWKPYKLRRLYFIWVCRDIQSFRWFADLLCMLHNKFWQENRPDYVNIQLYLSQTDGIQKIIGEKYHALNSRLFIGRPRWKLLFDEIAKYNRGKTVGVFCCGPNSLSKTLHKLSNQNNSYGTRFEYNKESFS
T1 sequence (P13498 2-195 partner limits assumed): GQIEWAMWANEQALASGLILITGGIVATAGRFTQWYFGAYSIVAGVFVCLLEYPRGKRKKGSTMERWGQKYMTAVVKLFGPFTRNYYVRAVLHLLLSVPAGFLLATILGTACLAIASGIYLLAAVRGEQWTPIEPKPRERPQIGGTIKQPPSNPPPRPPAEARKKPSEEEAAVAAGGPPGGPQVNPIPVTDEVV
Assay: Amplex Red assay, H2O2 production in COS-Nox4 lysates
Assay type: biochemical
Settings: for rate of H2O2 production, Amplex red oxidation: 0 μM control 80.4±3.1
Experimental: To test this hypothesis, the inhibitory activity of Nox2ds was assessed in cell-free assays using reconstituted systems expressing either Nox1, 2 or 4 oxidase. Nox 2 oxidase was recapitulated by stably transfecting COS 7 cells with Nox2, p22phox, p47phox, and p67phox (aka COS-Nox2). Nox1 oxidase was obtained by transfecting COS 7 cells with Nox1, p22phox, NOXO1 and NOXA1 (COS-Nox1), and Nox 4 oxidase was regenerated by transfection of COS 7 cells with Nox4 and p22phox. […] Our new data support selectivity of Nox2ds peptide in differentiating the contribution of Nox2 vs. Nox1 and Nox4 NADPH oxidase and its potential clinical use in ameliorating cardiopulmonary diseases.
Cell transfection was carried out using Lipofectamine LTX and Plus reagent (Invitrogen), according to the manufacturer's instructions. COS-22 cells were transiently cotransfected with pcDNA 3.1-hNox1, pCMVsport 6-hNOXA1, and pcDNA3.1-hNoxO1 (COS-Nox1/NOXO1/NOXA1 cells). Cells were used 24 h after transfection. For stable transfection of Nox4, COS-22 cells were transfected with pcDNA3.1/Hygro-hNox4 (COS-Nox4 cells). COS-Nox4 cells were selected in complete medium supplemented with 0.2 mg/ml hygromycin B and 1.8 mg/ml G418. Stable transfectants were maintained in culture under the same conditions. Adherent cells were harvested by incubating with 0.05% trypsin/EDTA for 5 min at 37° C. After addition of DMEM/10% FBS to neutralize the trypsin, the cells were pelleted by centrifugation at 1000 g for 5 min at 4° C. and used for the experiments.
Hydrogen peroxide (H2O2) generation was quantified in COS-Nox4 cell lysates by Amplex Red. H2O2-producing activity was quantified in […] using Amplex red. Briefly, COS-Nox4 cells (5×10^7 cells/nil) were disrupted in ice-cold disruption buffer (PBS containing 0.1 mM EDTA, 10% glycerol, protease inhibitor cocktail, and 0.1 mM PMSF) by freeze/thaw cycles as we described above. Incubation of COS-Nox4 cell lysate with Nox2ds was performed in assay buffer (25 mM Hepes, pH 7.4, containing 0.12 M NaCl, 3 mM KCl, 1 mM MgCl2, 0.1 mM Amplex red, and 0.32 U/ml HRP) for 5 min at room temperature on an orbital shaker (120 movements/min), before the addition of 36 μM NADPH, to initiate H2O2 production. […] Fluorescence measurements were made using a Biotek Synergy 4 hybrid multimode microplate reader with a 530/25-excitation and a 590/35-emission filter. A standard curve of known H2O2 concentrations was developed using the Amplex red assay (as per the manufacturer's instructions) and was used to quantify H2O2 production in the COS-Nox4 cell-free system. Nox4 activity was obtained by subtracting nontransfected COS-22 cell lysate activity from COS-Nox4 cell lysate activity. The reaction was monitored at room temperature for 10 min, and the emission increase was linear during this interval.
H2O2 production was initiated by the addition of NADPH and measured by Amplex Red for 10 min.

Question: Which results are given for CSTRVRRQL-NH2 [Nox2ds, CSTRVRRQL]?
Answer: inhibition of COS-Nox4 lysate H2O2 production (in words): did not inhibit; rate of H2O2 production, Amplex red oxidation (0.1 μM peptide): 74.3±2.1 nmol H2O2/min/10^7 cell lysate equivalents; rate of H2O2 production, Amplex red oxidation (0.3 μM peptide): 74.1±5.9 nmol H2O2/min/10^7 cell lysate equivalents; rate of H2O2 production, Amplex red oxidation (1 μM peptide): 82.3±3.4 nmol H2O2/min/10^7 cell lysate equivalents; rate of H2O2 production, Amplex red oxidation (3 μM peptide): 83.3±1.6 nmol H2O2/min/10^7 cell lysate equivalents
